Common to all, as to format: biochemical
In one assay the target is C481S Btk (Homo sapiens, UniProt Q06187, C481S). Kind of assay: Caliper-based kinase assay, C481S BTK. The conditions noted are these: 0.5 nM enzyme, ATP 16 μM, room temperature 3 h; read-out: C481S BTK IC50 (nM) (reversible inhibition). Here is the method:
(§1) A Caliper-based kinase assay (Caliper Life Sciences, Hopkinton, Mass.) was used to measure inhibition of WT and […] Btk kinase activity of a compound of the present disclosure. […] The reaction was then terminated with EDTA, final concentration 20 mM and the phosphorylated reaction product was quantified on a Caliper Desktop Profiler (Caliper LabChip 3000).

Assay [1] deals with T1, WT BTK (Homo sapiens, UniProt Q06187). Kind of assay: In vitro dialysis assay (irreversibility assay), WT BTK. The conditions noted are these: reversible or irreversible/covalent inhibition after 24 h dialysis. Here is the method: The compound-enzyme complex was dialyzed against the same buffer supplemented with 40 mM ATP for 24 hr. Cumulative dialysis factor>160,000×. After dialysis, the BTK activity was measured in the presence […] and 1 mM substrate peptide and compared to that in non-dialyzed samples. Assay buffer: 100 mM HEPES, pH7.5; […]; 5 mM MgCl2; 1 mM DTT. In this study, Ibrutiib (a FDA approved irreversible BTK inhibitor) was used as a positive control and Saurosporine (a reversible BTK inhibitor) was used as a negative control.
T1 sequence (Q06187 whole entry): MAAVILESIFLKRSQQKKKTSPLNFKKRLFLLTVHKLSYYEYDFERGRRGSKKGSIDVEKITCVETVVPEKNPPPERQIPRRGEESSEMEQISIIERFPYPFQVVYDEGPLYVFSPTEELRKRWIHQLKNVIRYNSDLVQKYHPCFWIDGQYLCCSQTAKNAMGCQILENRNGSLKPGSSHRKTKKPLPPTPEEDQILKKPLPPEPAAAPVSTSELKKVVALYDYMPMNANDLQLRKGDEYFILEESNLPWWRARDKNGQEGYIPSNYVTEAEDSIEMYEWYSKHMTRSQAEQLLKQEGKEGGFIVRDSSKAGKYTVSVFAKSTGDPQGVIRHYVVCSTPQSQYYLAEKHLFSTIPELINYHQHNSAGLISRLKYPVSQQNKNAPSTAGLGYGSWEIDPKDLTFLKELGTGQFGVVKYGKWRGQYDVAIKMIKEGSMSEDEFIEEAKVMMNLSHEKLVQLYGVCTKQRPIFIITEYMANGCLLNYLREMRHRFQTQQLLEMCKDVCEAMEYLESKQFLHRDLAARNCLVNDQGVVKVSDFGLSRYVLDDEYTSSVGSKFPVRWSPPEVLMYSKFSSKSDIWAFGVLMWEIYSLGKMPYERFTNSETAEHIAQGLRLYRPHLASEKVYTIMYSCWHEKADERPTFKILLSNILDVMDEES

The target in assay [2] is T1, WT BTK. Kind of assay: Caliper-based kinase assay, WT BTK. The conditions noted are these: 0.5 nM enzyme, ATP 16 μM, room temperature 3 h; read-out: WT BTK IC50 (nM) (irreversible inhibition). Here is the method: as §1

Sequence of C481S Btk (Q06187 whole entry C481S): as the sequence (Q06187 whole entry) above, with C481S counted along it

The term IC50 denotes the concentration that gives 50% inhibition. On to `C=CC(=O)Nc1cc(Nc2nc(-c3ccnc(N4CCn5c(cc6c5CC(C)(C)C6)C4=O)c3C)cn(C)c2=O)ccc1N1CCN(C2COC2)C[C@@H]1C` [Example 11, (S)—N-(5-((6-(2-(7,7-dimethyl-1-oxo-1,3,4,6,7,8-hexahydro-2H-cyclopenta[4,5]pyrrolo[1,2-a]pyrazin-2-yl)-3-methylpyridin-4-yl)-4-methyl-3-oxo-3,4-dihydropyrazin-2-yl)amino)-2-(2-methyl-4-(oxetan-3-yl)piperazin-1-yl)phenyl)acrylamide], for which the IC50 on C481S Btk turned out to be 15.9 nM; at WT BTK [2] it was 0.25 nM. Besides, the “Conclusion (WT BTK)” value at WT BTK [1] is reported as “Irreversible/covalent inhibition”.

On to `C=CC(=O)Nc1cc(Nc2nc(-c3ccnc(N4CCn5c(cc6c5CC(C)(C)C6)C4=O)c3CO)cn(C)c2=O)ccc1N1CCC(N2CCOCC2)CC1C` (stereo not drawn) [Example 12, N-(5-((6-(2-(7,7-dimethyl-1-oxo-1,3,4,6,7,8-hexahydro-2H-cyclopenta[4,5]pyrrolo[1,2-a]pyrazin-2-yl)-3-(hydroxymethyl)pyridin-4-yl)-4-methyl-3-oxo-3,4-dihydropyrazin-2-yl)amino)-2-(2-methyl-4-morpholinopiperidin-1-yl)phenyl)acrylamide], for which the figures for the IC50 on C481S Btk and on WT BTK [2] were 0.25 nM and 0.046 nM, respectively. Also, on WT BTK [1], the “Conclusion (WT BTK)” value is “Irreversible/covalent inhibition”.

On to `C=CC(=O)Nc1cc(Nc2nc(-c3ccnc(N4CCn5c(cc6c5CC(C)(C)C6)C4=O)c3C)cn(C)c2=O)ccc1N1CCC(N2CCOCC2)CC1C` [Example 17, N-(5-[[6-(2-[4,4-dimethyl-9-oxo-1,10-diazatricyclo[6.4.0.0^[2,6]]dodeca-2(6),7-dien-10-yl]-3-methylpyridin-4-yl)-4-methyl-3-oxopyrazin-2-yl]amino]-2-[(2S)-2-methyl-4-(morpholin-4-yl)piperidin-1-yl]phenyl)prop-2-enamide], for which the IC50 is 7.1 nM on C481S Btk and 0.1 nM on WT BTK [2]. The “Conclusion (WT BTK)” value on WT BTK [1] is reported as “Irreversible/covalent inhibition”.

`C=CC(=O)Nc1cc(Nc2nc(-c3ccnc(N4CCn5c(cc6c5CC(C)(C)C6)C4=O)c3C)cn(C)c2=O)ccc1N1CCC(N2CCOCC2)CC1.Cl` [Example 18, N-(5-[[6-(2-[4,4-dimethyl-9-oxo-1,10-diazatricyclo[6.4.0.0^[2,6]]dodeca-2(6),7-dien-10-yl]-3-methylpyridin-4-yl)-4-methyl-3-oxopyrazin-2-yl]amino]-2-[4-(morpholin-4-yl)piperidin-1-yl]phenyl)prop-2-enamide hydrochloride]: the IC50 is 11.4 nM on C481S Btk and 0.18 nM at WT BTK [2]. For the same compound, at WT BTK [1], the “Conclusion (WT BTK)” value is listed as “Irreversible/covalent inhibition”.

Turning to `C=CC(=O)Nc1cc(Nc2nc(-c3ccnc(N4CCn5c(cc6c5CC(C)(C)C6)C4=O)c3CO)cn(C)c2=O)ccc1N1CCC(N2CCC(F)(F)CC2)CC1` [Example 20, N-(2-[4,4-difluoro-[1,4′-bipiperidin]-1′-yl]-5-[[6-(2-[4,4-dimethyl-9-oxo-1,10-diazatricyclo[6.4.0.0^[2,6]]dodeca-2(6),7-dien-10-yl]-3-(hydroxymethyl)pyridin-4-yl)-4-methyl-3-oxopyrazin-2-yl]amino]phenyl)prop-2-enamide], the figures for the IC50 at C481S Btk and at WT BTK [2] were 0.4 nM and 0.053 nM, respectively. Moreover, at WT BTK [1], the “Conclusion (WT BTK)” value is recorded as “Irreversible/covalent inhibition”.

On to `C=CC(=O)Nc1cc(Nc2nc(-c3ccnc(N4CCn5c(cc6c5CC(C)(C)C6)C4=O)c3CO)cn(C)c2=O)ccc1N1CCC(N2CCN(C)CC2)CC1` [Example 21, N-(5-[[6-(2-[4,4-dimethyl-9-oxo-1,10-diazatricyclo[6.4.0.0^[2,6]]dodeca-2(6),7-dien-10-yl]-3-(hydroxymethyl)pyridin-4-yl)-4-methyl-3-oxopyrazin-2-yl]amino]-2-[4-(4-methylpiperazin-1-yl)piperidin-1-yl]phenyl)prop-2-enamide], for which the IC50 is 0.4 nM at C481S Btk and 0.04 nM at WT BTK [2]. The “Conclusion (WT BTK)” value at WT BTK [1] is given as “Irreversible/covalent inhibition”.

As for `C=CC(=O)Nc1cc(Nc2nc(-c3ccnc(N4CCn5c(cc6c5CC(C)(C)C6)C4=O)c3CO)cn(C)c2=O)ccc1N1CCN(C2CCOCC2)C[C@@H]1C` [Example 22, N-(5-[[6-(2-[4,4-dimethyl-9-oxo-1,10-diazatricyclo[6.4.0.0^[2,6]]dodeca-2(6),7-dien-10-yl]-3-(hydroxymethyl)pyridin-4-yl)-4-methyl-3-oxopyrazin-2-yl]amino]-2-[(2S)-2-methyl-4-(oxan-4-yl)piperazin-1-yl]phenyl)prop-2-enamide], the results for the IC50 on C481S Btk and on WT BTK [2] were 0.48 nM and 0.046 nM, respectively. Besides, the “Conclusion (WT BTK)” value on WT BTK [1] is “Irreversible/covalent inhibition”.

As to `C=CC(=O)Nc1cc(Nc2nc(-c3ccnc(N4CCn5c(cc6c5CC(C)(C)C6)C4=O)c3CO)cn(C)c2=O)ccc1N1CCN(C2CCC(F)(F)CC2)C[C@@H]1C` [Example 23, N-[2-[(2S)-4-(4,4-difluorocyclohexyl)-2-methylpiperazin-1-yl]-5-[[6-(2-[4,4-dimethyl-9-oxo-1,10-diazatricyclo[6.4.0.0^[2,6]]dodeca-2(6),7-dien-10-yl]-3-(hydroxymethyl)pyridin-4-yl)-4-methyl-3-oxopyrazin-2-yl]amino]phenyl]prop-2-enamide], the IC50 at C481S Btk was determined as 0.49 nM; on WT BTK [2] it was 0.048 nM. For the same compound, at WT BTK [1], the “Conclusion (WT BTK)” value is on record as “Irreversible/covalent inhibition”.

As to `C=CC(=O)Nc1cc(Nc2nc(-c3ccnc(N4CCCn5c(cc6c5CC(C)(C)C6)C4=O)c3CO)cn(C)c2=O)ccc1N1CCN(C2COC2)C[C@@H]1C` [Example 29, N-(5-[[6-(2-[4,4-dimethyl-9-oxo-1,10-diazatricyclo[6.5.0.0^[2,6]]trideca-2(6),7-dien-10-yl]-3-(hydroxymethyl)pyridin-4-yl)-4-methyl-3-oxopyrazin-2-yl]amino]-2-[(2S)-2-methyl-4-(oxetan-3-yl)piperazin-1-yl]phenyl)prop-2-enamide], the IC50 stood at 0.32 nM at C481S Btk and 0.076 nM at WT BTK [2]. Moreover, the “Conclusion (WT BTK)” value at WT BTK [1] was “Irreversible/covalent inhibition”.

For `C=CC(=O)Nc1cc(Nc2nc(-c3ccnc(N4CCc5c(sc6c5CCC6(C)C)C4=O)c3CO)cn(C)c2=O)ccc1N1CCN(C2COC2)C[C@@H]1C` [Example 35, N-(5-[[6-(2-[5,5-dimethyl-9-oxo-7-thia-10-azatricyclo[6.4.0.0^[2,6]]dodeca-1(8),2(6)-dien-10-yl]-3-(hydroxymethyl)pyridin-4-yl)-4-methyl-3-oxopyrazin-2-yl]amino]-2-[(2S)-2-methyl-4-(oxetan-3-yl)piperazin-1-yl]phenyl)prop-2-enamide], the IC50 at C481S Btk came to 17.9 nM; on WT BTK [2], 0.13 nM. For the same compound, on WT BTK [1], the “Conclusion (WT BTK)” value is listed as “Irreversible/covalent inhibition”.

`C=CC(=O)Nc1cc(Nc2nc(-c3ccnc(N4CCc5c(sc6c5CCCC6)C4=O)c3CO)cn(C)c2=O)ccc1N1CCN(C2COC2)C[C@@H]1C` [Example 36, N-[5-([6-[3-(hydroxymethyl)-2-[6-oxo-8-thia-5-azatricyclo[7.4.0.0^[2,7]]trideca-1(9),2(7)-dien-5-yl]pyridin-4-yl]-4-methyl-3-oxopyrazin-2-yl]amino)-2-[(2S)-2-methyl-4-(oxetan-3-yl)piperazin-1-yl]phenyl]prop-2-enamide]: the figures for the IC50 on C481S Btk and on WT BTK [2] were 1.1 nM and 0.1 nM, respectively. Moreover, the “Conclusion (WT BTK)” value on WT BTK [1] was “Irreversible/covalent inhibition”.

With `C=CC(=O)Nc1cc(Nc2nc(-c3ccnc(N4CCCn5c(cc6c5CC(C)(C)C6)C4=O)c3CO)cn(C)c2=O)ccc1N1CCN([C@H]2C[C@@H](C)O[C@@H](C)C2)C[C@@H]1C` [Example 38, N-(5-[[6-(2-[4,4-dimethyl-9-oxo-1,10-diazatricyclo[6.5.0.0^[2,6]]trideca-2(6),7-dien-10-yl]-3-(hydroxymethyl)pyridin-4-yl)-4-methyl-3-oxopyrazin-2-yl]amino]-2-[(2S)-2-methyl-4-[(2R,4r,6S)-2,6-dimethyloxan-4-yl]piperazin-1-yl]phenyl)prop-2-enamide], the IC50 stood at 0.26 nM at C481S Btk and 0.073 nM on WT BTK [2]. The “Conclusion (WT BTK)” value on WT BTK [1] is given as “Irreversible/covalent inhibition”.

As for `C=CC(=O)Nc1cc(Nc2nc(-c3ccnc(N4CCn5c(cc6c5CC(C)(C)C6)C4=O)c3CO)cn(C)c2=O)ccc1N1CCN(C2CCOC2)C[C@@H]1C` (stereo partly drawn) [Example 39, N-(5-[[6-(2-[4,4-dimethyl-9-oxo-1,10-diazatricyclo[6.4.0.0^[2,6]]dodeca-2(6),7-dien-10-yl]-3-(hydroxymethyl)pyridin-4-yl)-4-methyl-3-oxopyrazin-2-yl]amino]-2-[(2S)-2-methyl-4-(oxolan-3-yl)piperazin-1-yl]phenyl)prop-2-enamide], the IC50 on C481S Btk was 0.34 nM; on WT BTK [2], 0.06 nM. The “Conclusion (WT BTK)” value on WT BTK [1] is recorded as “Irreversible/covalent inhibition”.

Regarding `C=CC(=O)Nc1cc(Nc2nc(-c3ccnc(N4CCn5c(cc6c5CC(C)(C)C6)C4=O)c3CO)cn(C)c2=O)ccc1C1C(=O)N(C)CCN1C1COC1` (stereo not drawn) [Example 41], the IC50 on C481S Btk is 0.61 nM; on WT BTK [2], 0.27 nM. For the same compound, the “Conclusion (WT BTK)” value on WT BTK [1] was “Irreversible/covalent inhibition”.

Values taken from patent publication US20220363689A1, “INHIBITOR OF BTK AND MUTANTS THEREOF” (Newave Pharmaceutical Inc., priority 2019, published 2022).
